Assay results: PubChem BioAssay AID1259407 (Chemical Carcinogenesis Research Information System (CCRIS), 2018)
The source made the active and inactive calls. How the calls were made is not given here.

Tested on: CCRIS mutagenicity, Ames/micronucleus/aberration tests
Assay: CCRIS mutagenicity studies
[1] = Test System: AMES SALMONELLA TYPHIMURIUM, Strain/Indicator: TA98, Metabolic Activation: NONE, Method: PREINCUBATION
[2] = Test System: AMES SALMONELLA TYPHIMURIUM, Strain/Indicator: TA98, Metabolic Activation: RAT LIVER S-9, PHENOBARBITAL AND BETA-NAPHTHOFLAVONE, Method: PREINCUBATION
[3] = Test System: AMES SALMONELLA TYPHIMURIUM, Strain/Indicator: TA100, Metabolic Activation: NONE, Method: PREINCUBATION
[4] = Test System: AMES SALMONELLA TYPHIMURIUM, Strain/Indicator: TA100, Metabolic Activation: RAT LIVER S-9, PHENOBARBITAL AND BETA-NAPHTHOFLAVONE, Method: PREINCUBATION
[5] = Test System: AMES SALMONELLA TYPHIMURIUM, Strain/Indicator: TA1535, Metabolic Activation: NONE, Method: PREINCUBATION
[6] = Test System: AMES SALMONELLA TYPHIMURIUM, Strain/Indicator: TA1535, Metabolic Activation: RAT LIVER S-9, PHENOBARBITAL AND BETA-NAPHTHOFLAVONE, Method: PREINCUBATION
[7] = Test System: AMES SALMONELLA TYPHIMURIUM, Strain/Indicator: TA1537, Metabolic Activation: NONE, Method: PREINCUBATION
[8] = Test System: AMES SALMONELLA TYPHIMURIUM, Strain/Indicator: TA1537, Metabolic Activation: RAT LIVER S-9, PHENOBARBITAL AND BETA-NAPHTHOFLAVONE, Method: PREINCUBATION
[9] = Test System: E.COLI, Strain/Indicator: WP2UVRA, Metabolic Activation: NONE, Method: PREINCUBATION
[10] = Test System: E.COLI, Strain/Indicator: WP2UVRA, Metabolic Activation: RAT LIVER S-9, PHENOBARBITAL AND BETA-NAPHTHOFLAVONE, Method: PREINCUBATION
[11] = Test System: AMES SALMONELLA TYPHIMURIUM, Strain/Indicator: TA98, Metabolic Activation: NONE, Method: STANDARD PLATE
[12] = Test System: AMES SALMONELLA TYPHIMURIUM, Strain/Indicator: TA100, Metabolic Activation: NONE, Method: STANDARD PLATE
[13] = Test System: MOUSE LYMPHOMA, Strain/Indicator: L5178Y (TK+/TK-), Metabolic Activation: NONE, Method: SUSPENSION/PLATE
[14] = Test System: AMES SALMONELLA TYPHIMURIUM, Strain/Indicator: TA98, Metabolic Activation: RAT, LIVER, S-9, AROCLOR 1254, Method: STANDARD PLATE
[15] = Test System: AMES SALMONELLA TYPHIMURIUM, Strain/Indicator: TA100, Metabolic Activation: RAT, LIVER, S-9, AROCLOR 1254, Method: STANDARD PLATE
[16] = Test System: AMES SALMONELLA TYPHIMURIUM, Strain/Indicator: TA1535, Metabolic Activation: NONE, Method: STANDARD PLATE
[17] = Test System: AMES SALMONELLA TYPHIMURIUM, Strain/Indicator: TA1535, Metabolic Activation: RAT, LIVER, S-9, AROCLOR 1254, Method: STANDARD PLATE
[18] = Test System: AMES SALMONELLA TYPHIMURIUM, Strain/Indicator: TA1537, Metabolic Activation: NONE, Method: STANDARD PLATE
[19] = Test System: AMES SALMONELLA TYPHIMURIUM, Strain/Indicator: TA1537, Metabolic Activation: RAT, LIVER, S-9, AROCLOR 1254, Method: STANDARD PLATE

Q: NCCCN1CCN(CCCN)CC1 was tested. Which mutagenic call [1] did it give?
A: inactive; negative

Q: What about the mutagenic call [2] of the same compound?
A: inactive; negative

Q: What about the mutagenic call [3] of the same compound?
A: inactive; negative

Q: And the mutagenic call [4]?
A: inactive; negative

Q: What about the mutagenic call (Test System: AMES SALMONELLA TYPHIMURIUM, Strain/Indicator: TA102, Metabolic Activation: NONE, Method: PREINCUBATION) of the same compound?
A: inactive; negative

Q: What about the mutagenic call (Test System: AMES SALMONELLA TYPHIMURIUM, Strain/Indicator: TA102, Metabolic Activation: RAT LIVER S-9, PHENOBARBITAL AND BETA-NAPHTHOFLAVONE, Method: PREINCUBATION) of the same compound?
A: inactive; negative

Q: And the mutagenic call (Test System: AMES SALMONELLA TYPHIMURIUM, Strain/Indicator: TA104, Metabolic Activation: NONE, Method: PREINCUBATION)?
A: inactive; negative

Q: And the mutagenic call (Test System: AMES SALMONELLA TYPHIMURIUM, Strain/Indicator: TA104, Metabolic Activation: RAT LIVER S-9, PHENOBARBITAL AND BETA-NAPHTHOFLAVONE, Method: PREINCUBATION)?
A: inactive; negative

Q: What about the mutagenic call [5] of the same compound?
A: inactive; negative

Q: And the mutagenic call [6]?
A: inactive; negative

Q: What about the mutagenic call [7] of the same compound?
A: inactive; negative

Q: And the mutagenic call [8]?
A: inactive; negative

Q: What about the mutagenic call (Test System: E.COLI, Strain/Indicator: WP2UVRA/PKM101, Metabolic Activation: NONE, Method: PREINCUBATION) of the same compound?
A: inactive; negative

Q: What about the mutagenic call (Test System: E.COLI, Strain/Indicator: WP2UVRA/PKM101, Metabolic Activation: RAT LIVER S-9, PHENOBARBITAL AND BETA-NAPHTHOFLAVONE, Method: PREINCUBATION) of the same compound?
A: inactive; negative

Q: What about the mutagenic call [9] of the same compound?
A: inactive; negative

Q: And the mutagenic call [10]?
A: inactive; negative

Q: Which results are given for Cc1ncc(CNC(=O)N(CCCl)N=O)c(N)n1?
A: mutagenic call [11]: active; positive; mutagenic call [12]: active; positive; mutagenic call (Test System: E. COLI, Strain/Indicator: WP2 (HCR), Metabolic Activation: NONE, Method: STANDARD PLATE): active; positive

Q: How did the mutagenic call [1] turn out when [O-][Cl+3]([O-])([O-])O was run?
A: inactive; negative

Q: And the mutagenic call [2]?
A: inactive; negative

Q: What about the mutagenic call [3] of the same compound?
A: inactive; negative

Q: And the mutagenic call [4]?
A: inactive; negative

Q: What about the mutagenic call [5] of the same compound?
A: inactive; negative

Q: What about the mutagenic call [6] of the same compound?
A: inactive; negative

Q: And the mutagenic call [7]?
A: inactive; negative

Q: What about the mutagenic call [8] of the same compound?
A: inactive; negative

Q: And the mutagenic call (Test System: AMES SALMONELLA TYPHIMURIUM, Strain/Indicator: TA1538, Metabolic Activation: NONE, Method: PREINCUBATION)?
A: inactive; negative

Q: And the mutagenic call (Test System: AMES SALMONELLA TYPHIMURIUM, Strain/Indicator: TA1538, Metabolic Activation: RAT LIVER S-9, PHENOBARBITAL AND BETA-NAPHTHOFLAVONE, Method: PREINCUBATION)?
A: inactive; negative

Q: And the mutagenic call [9]?
A: inactive; negative

Q: What about the mutagenic call [10] of the same compound?
A: inactive; negative

Q: How did the mutagenic call [13] turn out when C=CC was run?
A: inactive; negative

Q: What about the mutagenic call (Test System: MOUSE LYMPHOMA, Strain/Indicator: L5178Y (TK+/TK-), Metabolic Activation: RAT, LIVER, S-9, Method: SUSPENSION/PLATE) of the same compound?
A: inactive; negative

Q: With O=P(O)(O)CCCl as the compound, how does the mutagenic call (End Point: In vitro chromosomal aberrations, Test System: Chinese hamster ovary (CHO-WBL) cells, Metabolic Activation: None) read?
A: inactive; negative

Q: What about the mutagenic call (End Point: In vitro chromosomal aberrations, Test System: Chinese hamster ovary (CHO-WBL) cells, Metabolic Activation: Rat, Liver, S-9, Aroclor 1254) of the same compound?
A: inactive; negative

Q: And the mutagenic call (Test System: Chinese hamster ovary cells, Strain/Indicator: CHO-K1-BH4 (HGPRT)/6-Thioguanine, Metabolic Activation: None, Method: Suspension/Plate?)?
A: inactive; negative (an increase in mutation frequency at 2.5 mg/ml not confirmed in repeat

Q: And the mutagenic call (Test System: Chinese hamster ovary cells, Strain/Indicator: CHO-K1-BH4 (HGPRT)/6-Thioguanine, Metabolic Activation: Rat, Liver, S-9, Aroclor 1254, Method: Suspension/Plate?)?
A: inactive; negative (an increase in mutation frequency at 2.5 mg/ml not confirmed in repeat

Q: Which mutagenic call [11] does the source give for CN1CCN(C2=Nc3cc(Cl)ccc3Nc3ccccc32)CC1 here?
A: inactive; negative

Q: What about the mutagenic call [14] of the same compound?
A: inactive; negative

Q: What about the mutagenic call [12] of the same compound?
A: inactive; negative

Q: What about the mutagenic call [15] of the same compound?
A: inactive; negative

Q: What about the mutagenic call [16] of the same compound?
A: inactive; negative

Q: And the mutagenic call [17]?
A: inactive; negative

Q: And the mutagenic call [18]?
A: inactive; negative

Q: What about the mutagenic call [19] of the same compound?
A: inactive; negative

Q: Which results are given for CC(=O)c1ccccn1?
A: mutagenic call (Test System: AMES SALMONELLA TYPHIMURIUM, Strain/Indicator: TA98, Metabolic Activation: HAMSTER, LIVER, S-9, AROCLOR 1254, Method: STANDARD PLATE): inactive; negative; mutagenic call [11]: inactive; negative; mutagenic call [14]: inactive; negative; mutagenic call (Test System: AMES SALMONELLA TYPHIMURIUM, Strain/Indicator: TA100, Metabolic Activation: HAMSTER, LIVER, S-9, AROCLOR 1254, Method: STANDARD PLATE): inactive; negative; mutagenic call [12]: inactive; negative; mutagenic call [15]: inactive; negative; mutagenic call (Test System: AMES SALMONELLA TYPHIMURIUM, Strain/Indicator: TA1535, Metabolic Activation: HAMSTER, LIVER, S-9, AROCLOR 1254, Method: STANDARD PLATE): inactive; negative; mutagenic call [16]: inactive; negative; mutagenic call [17]: inactive; negative; mutagenic call (Test System: AMES SALMONELLA TYPHIMURIUM, Strain/Indicator: TA1537, Metabolic Activation: HAMSTER, LIVER, S-9, AROCLOR 1254, Method: STANDARD PLATE): inactive; negative; mutagenic call [18]: inactive; negative; mutagenic call [19]: inactive; negative; mutagenic call (Test System: AMES SALMONELLA TYPHIMURIUM, Strain/Indicator: TA1538, Metabolic Activation: HAMSTER, LIVER, S-9, AROCLOR 1254, Method: STANDARD PLATE): inactive; negative; mutagenic call (Test System: AMES SALMONELLA TYPHIMURIUM, Strain/Indicator: TA1538, Metabolic Activation: NONE, Method: STANDARD PLATE): inactive; negative; mutagenic call (Test System: AMES SALMONELLA TYPHIMURIUM, Strain/Indicator: TA1538, Metabolic Activation: RAT, LIVER, S-9, AROCLOR 1254, Method: STANDARD PLATE): inactive; negative; mutagenic call [13]: active; positive. reevaluation of results: positive; mutagenic call (Test System: MOUSE LYMPHOMA, Strain/Indicator: L5178Y (TK+/TK-), Metabolic Activation: RAT, LIVER, S-9, AROCLOR 1254, Method: SUSPENSION/PLATE): active; positive. reevaluation of results: inconclusive

Q: Which mutagenic call [11] does the source give for O=C(O)c1oc([N+](=O)[O-])c(-c2ccccc2)c1-c1ccccc1 here?
A: inactive; negative

Q: And the mutagenic call [12]?
A: active; positive
